Reference: publication PMC7804859, “A metabolically stable apelin-17 analog decreases AVP-induced antidiuresis and improves hyponatremia” (Nature Communications, 2021)
Values joined by “and” are separate entries in the source; they are usually repeats but may differ in a detail not shown here. Equal values may be shown once.

Key:
[1] = test system: phosphorylated AQP-2 in mpkCCD cells; assay: dDAVP-induced phosphorylation of AQP-2 in mpkCCD cells (immunofluorescence); format: cell-based, mouse; conditions: 10 µmol/l compound with 10 nmol/l dDAVP, 1 h
Procedure: mpkCCD cells were seeded in 12 mm Transwell filters of 0.4 μm pore size at a density of 160,000 cells/cm^2 and were grown for 5 days. Twenty-four hours before the experiment, cells were starved with depletion media (1:1 (vol/vol) Ham’s F12:DMEM medium). […] The cell culture medium was removed and cells were fixed with 4% formaldehyde in 1× PBS for 10 min at 4 °C, and permeabilized with 0.5% PBS Triton X-100 for 5 min at 20 °C. Then, inserts were incubated in 5% PBS-BSA for 60 min at 20 °C to block non-specific protein binding. Inserts were subjected to immunostaining with a rabbit anti-AQP-2-pS269 antibody (dilution, 1/200, Phospho Solution, Cliniscience, France) and a mouse monoclonal anti-occludin antibody (dilution, 1/200, Santa Cruz, Cliniscience, France) for 16 h at 4 °C. Inserts were then incubated with goat anti-rabbit Alexa Fluor Plus 647 or goat anti-mouse Alexa Fluor plus 488 secondary antibodies (dilution, 1/500, Invitrogen) for 60 min at 20 °C. […] Slides were analyzed in the x–y and x–z axes under a ×63/1.4 Oil WD: 0.17 mm objective with a Zeiss Axioobserver Z1 inverted spinning-disk microscope equipped with a camera sCMOS Hamamatsu 2048 × 2048/pixel size: 6.45 × 6.45 µm^2 and the lasers (405 nm; 100 mW, 491 nm; 150 mW and 642 nm; 100 mW). […]

[2] = Plasma LIT01-196 levels by mass spectrometry after i.v. injection in mice; format: in vivo, mouse; conditions: for Apelin (plasma LIT01-196 concentration by mass spectrometry): 300 nmol/kg IV
Text: The detection limit was 6
The within- and between-assay
229 coefficients of variation were 3 and 5%, respectively6. The recovery (mean±SEM) was
233 the elimination rate constant.
236 animals per time point).
242 and 0.05% formic acid; solvent B: acetonitrile). Plasma samples were processed before RP-
244 acetonitrile for protein precipitation and compound extraction. Samples were vortex-stirred
248 standard and compared to standard curves. Standard curves were obtained by analyzing
250 using the same procedure. Pharmacokinetics parameters were calculated using a one-
Peptide injection and blood sample collection were performed by […]

[3] = test system: rat outer medullary collecting ducts (OMCDs); assay: dDAVP-induced cAMP production in microdissected rat outer medullary collecting ducts; format: cell-based
Procedure: The left kidney of male rats was prepared for nephron microdissection, as previously described[51]. Pieces of OMCDs were isolated under a stereomicroscope.
Then cells were treated with 10
180 37°C. Then the media was removed and 100 µl of lysis buffer (Cisbio Bioassays, Codolet,
181 France) was added to Transwell filter and plate was incubated at 20°C for 2 hours. Cell
183 384-well plates (Perkin Elmer) according to manufacturer’s instructions (Cisbio Bioassays,
184 Codolet, France). Cyclic AMP levels were measured in microdissected OMCDs by the same
Results are expressed in femtomoles of cAMP produced
186 per mm tubular length and per 10 min incubation time at 37°C.

[4] = test system: normonatremic Sprague-Dawley rats; assay: Blood and urine chemistry after 4 days of s.c. administration in rats; format: in vivo, rat; design: Plasma glucose: unit not given beside the values; Blood urea nitrogen / 24h Urine glucose: unit not given here
Procedure: Fractional excretion of water (in %) was calculated using the following formula: (plasma creatinine/urine creatinine) × 100. Fractional excretion of sodium (in %) was calculated using the following formula: (plasma creatinine × urine sodium/urine creatinine × plasma sodium) × 100. Blood and urine creatinine, urea nitrogen, and glucose levels were determined using an AU5800 Beckman Coulter chemistry analyzer (Beckman Coulter, Villepinte, France).

human V2-R = molecular target: T1, human V2-R (Homo sapiens, UniProt P30518); assay: cAMP production in HEK-293 T cells expressing the human V2-R (HTRF); format: cell-based; conditions: HEK-293 T cells, human V2-R
T1 construct: host or cells: HEK-293T cells, transient transfection
T1 sequence (P30518 whole entry): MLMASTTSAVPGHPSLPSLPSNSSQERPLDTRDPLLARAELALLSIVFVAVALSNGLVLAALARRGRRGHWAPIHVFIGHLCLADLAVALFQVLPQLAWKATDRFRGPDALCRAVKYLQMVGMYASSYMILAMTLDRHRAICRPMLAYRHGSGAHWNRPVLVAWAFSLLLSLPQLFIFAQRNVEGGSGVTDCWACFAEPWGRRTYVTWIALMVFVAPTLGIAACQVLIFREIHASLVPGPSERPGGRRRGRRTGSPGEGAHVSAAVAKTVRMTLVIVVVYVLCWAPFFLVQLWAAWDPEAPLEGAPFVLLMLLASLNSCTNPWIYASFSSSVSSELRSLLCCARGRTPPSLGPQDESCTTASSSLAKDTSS
Procedure: 152 Supplementary Methods
154 We quantified cAMP production with the cAMP dynamic 2 assay kit (Cisbio Bioassays,
155 Codolet, France), which is based on homogeneous time-resolved fluorescence (HTRF)
156 technology, as previously described 1. […]
For cells expressing the V2-R, HEK-
160 293T cells were transiently transfected with the human V2-R (cDNA Resource Center), after
161 48h, 4000 cells/well were added to white 384-well optiplates and stimulated either with 5
Cells were then lysed, and
165 cAMP levels were determined in accordance with the kit manufacturer’s instructions.
166 Stimulation was performed in stimulation buffer-IBMX (SBI) (Hank’s balanced salt solution
167 (HBSS-Life Technology), 5 mmol/l Hepes, 0.1% BSA stabilizer (Perkin Elmer), 1 mmol/l
168 isobutylmethylxanthine (IBMX, Sigma Aldrich, pH 7.4)). […]

[5] = test system: alert Sprague-Dawley rats; assay: Mean arterial blood pressure in alert rats; format: in vivo, rat; design: SBP_Baseline / SBP_3h / SBP_24h: unit not given here
Procedure: 291 Blood pressure measurements
292 Rats were implanted with a right femoral artery catheter which was passed beneath the skin
293 under isoflurane anesthesia. Blood pressure (BP) was recorded in male alert Sprague Dawley
294 rats after a recovery period of at least 24 hours, with a PowerLab/Labchart system
295 (ADInstruments, Dunedin, New Zealand) connected to the arterial catheter via a pressure
296 transducer. Mean arterial BP (MABP) was calculated from the arterial pressure signal as
297 previously described 7. The compound was administered s.c. after baseline BP recording for at
298 least 30 minutes. BP was then measured at 3 and 24 hours after administration. At the end of
299 the experiment, animals were killed with a lethal dose of pentobarbital (Dolethal ®, 150

CSCC[C@H](NC(=O)[C@@H]1CCCN1C(=O)CNC(=O)[C@H](CCCCN)NC(=O)[C@H](Cc1c[nH]cn1)NC(=O)[C@H](CO)NC(=O)[C@H](CC(C)C)NC(=O)[C@H](CCCNC(=N)N)NC(=O)[C@@H]1CCCN1C(=O)[C@H](CCCNC(=N)N)NC(=O)[C@H](CCC(N)=O)NC(=O)[C@H](CCCNC(=N)N)NC(=O)[C@H](CCCNC(=N)N)NC(=O)[C@H](Cc1ccccc1)NC(=O)[C@H](CCCCN)NC(=O)CCC(F)(F)C(F)(F)C(F)(F)C(F)(F)C(F)(F)C(F)(F)C(F)(F)C(F)(F)F)C(=O)N1CCC[C@H]1C(=O)N[C@@H](Cc1ccccc1)C(=O)O [LIT01-196]
phosphorylation of AQP-2 (phospho-AQP-2 immunolabelling) [1]: decrease in the phosphorylation of AQP-2 | Apelin (plasma LIT01-196 concentration by mass spectrometry) ([2]; temps.min 5, single animals): 774.627 and 804.594 and 622.343 | Apelin (plasma LIT01-196 concentration by mass spectrometry) ([2]; temps.min 15, single animals): 548.524 and 627.056 and 820.177 | Apelin (plasma LIT01-196 concentration by mass spectrometry) ([2]; temps.min 28, single animals): 266.538 and 138.326 and 371.965 | Apelin (plasma LIT01-196 concentration by mass spectrometry) ([2]; temps.min 60, single animals): 64.4359 and 230.369 and 324.336 | half-life ([2]; CD-1, mouse, in vivo, iv, 300 nmol/kg i.v., UHPLC-MS/MS, one-compartment model, 3 animals per time point): 29 min | inhibition of dDAVP-induced cAMP production in OMCDs ([3]; co-application with dDAVP 0.1 nmol/l, increasing concentrations 50 nmol/l to 50 µmol/l): 41% | cAMP production, value (Fig 2E) ([3]; peptide 5.10-5M, experiment 1): 50 | cAMP production, value (Fig 2E) ([3]; peptide 5.10-5M, experiment 2): 47 | cAMP production, value (Fig 2E) ([3]; peptide 5.10-5M, experiment 3): 56 | cAMP production, value (Fig 2E) ([3]; peptide 5.10-5M, experiment 4): 50 | cAMP production, value (Fig 2E) ([3]; peptide 5.10-5M, experiment 5): 48 | cAMP production, value (Fig 2E) ([3]; peptide 5.10-5M, experiment 6): 49 | cAMP production, value (Fig 2E) ([3]; peptide 5.10-7M, experiment 1): 55 | cAMP production, value (Fig 2E) ([3]; peptide 5.10-7M, experiment 2): 58 | cAMP production, value (Fig 2E) ([3]; peptide 5.10-7M, experiment 3): 52 | cAMP production, value (Fig 2E) ([3]; peptide 5.10-7M, experiment 4): 54 | cAMP production, value (Fig 2E) ([3]; peptide 5.10-7M, experiment 5): 56 | cAMP production, value (Fig 2E) ([3]; peptide 5.10-7M, experiment 6): 53 | cAMP production, value (Fig 2E) ([3]; peptide 5.10-8M, experiment 1): 85 | cAMP production, value (Fig 2E) ([3]; peptide 5.10-8M, experiment 2): 87 | cAMP production, value (Fig 2E) ([3]; peptide 5.10-8M, experiment 3): 90 | cAMP production, value (Fig 2E) ([3]; peptide 5.10-8M, experiment 4): 83 | cAMP production, value (Fig 2E) ([3]; peptide 5.10-8M, experiment 5): 88 | cAMP production, value (Fig 2E) ([3]; peptide 5.10-8M, experiment 6): 81 | Plasma creatinine ([4]; 900 nmol/kg SC, individual animals (Fig. S5G source data)): 21 and 24 and 22 | Blood urea nitrogen ([4]; 900 nmol/kg SC, individual animals (Fig. S5H source data)): 7 and 8 and 5.6 and 6.8 and 6.1 | Plasma potassium ([4]; 900 nmol/kg SC, individual animals (Fig. S5J source data)): 4.54 and 4.76 and 5.03 and 4.26 and 4.35 | Plasma glucose ([4]; 900 nmol/kg SC, individual animals (Fig. S5K source data)): 8.1 and 9.1 and 7.4 and 8 and 7.6 | 24h Urine glucose ([4]; 900 nmol/kg SC, individual animals (Fig. S5L source data)): 0.04364 and 0.0331 and 0.0123 and 0 | blood creatinine, urea nitrogen, sodium, and potassium levels ([4]; 900 nmol/kg s.c. for 4 days, rats): not changed | plasma or urine glucose levels ([4]; repeated 900 nmol/kg s.c., normonatremic rats): not associated with a change | effect on cAMP production induced by 1 µmol/l AVP (human V2-R; 1 µmol/l compound, 30 min 37 °C): did not modify | effect on basal cAMP production (human V2-R; compound alone at 1 µmol/l): did not modify | SBP_3h ([5]; 900 nmol/kg SC, 3h, individual animals (Fig. S5A source data)): 100.529 and 94.7199 and 92.7855 and 89.7756 and 91.9306 | SBP_24h ([5]; 900 nmol/kg SC, 24h, individual animals (Fig. S5A source data)): 122.566 and 101.322 and 101.468 and 97.9055 | SBP_Baseline ([5]; 900 nmol/kg SC, baseline, individual animals (Fig. S5A source data)): 113.98 and 106.154 and 101.631 and 106.857 and 101.074 | MABP 24 h after administration ([5]; 900 nmol/kg s.c., alert rats): did not significantly differ from baseline | mean arterial blood pressure (MABP) 3 h after administration ([5]; 900 nmol/kg s.c., alert rats, n = 5, baseline 106 ± 2, p = 0.063): 94 ± 2 mmHg
